From ChEMBL document CHEMBL4138105, “LL-37-derived short antimicrobial peptide KR-12-a5 and its d-amino acid substituted analogs with cell selectivity, anti-biofilm activity, synergistic effect with conventional antibiotics, and anti-inflammatory activity” (Eur J Med Chem, 2017)
Converted amounts (≈) assume the structure as drawn. The source made the active and inactive calls. The rule behind the calls is not given here.

Key:
[1] = system: Enterococcus faecium; experiment: Antibacterial activity against Vancomycin-resistant Enterococcus faecium ATCC 51559 after 24 hrs; assay type: functional; details: ATCC 51559, 24 h
[2] = system: Staphylococcus aureus; experiment: Antibacterial activity against Staphylococcus aureus KCTC 1621 assessed as cell membrane disruption at 2 times MIC within 4 mins by Sytox Green dye based fluorescence spectrophotometer assay; assay type: functional, organism-based
[3] = system: Staphylococcus aureus; experiment: Antibacterial activity against Staphylococcus aureus KCTC 1621 assessed as cytoplasmic membrane depolarization at 2 times MIC by disC3-5 dye based fluorescence assay; assay type: functional, organism-based

CC[C@H](C)[C@H](NC(=O)CN)C(=O)NCC(=O)N[C@@H](C)C(=O)N[C@H](C(=O)N[C@@H](CC(C)C)C(=O)N[C@@H](CCCCN)C(=O)N[C@H](C(=O)N[C@@H](CC(C)C)C(=O)N[C@H](C(=O)N[C@H](C(=O)NCC(=O)N[C@@H](CC(C)C)C(=O)N1CCC[C@H]1C(=O)N[C@@H](C)C(=O)N[C@@H](CC(C)C)C(=O)N[C@H](C(=O)N[C@@H](CO)C(=O)N[C@@H](Cc1c[nH]c2ccccc12)C(=O)N[C@H](C(=O)N[C@@H](CCCCN)C(=O)N[C@@H](CCCNC(=N)N)C(=O)N[C@@H](CCCCN)C(=O)N[C@@H](CCCNC(=N)N)C(=O)N[C@@H](CCC(N)=O)C(=O)N[C@@H](CCC(N)=O)C(N)=O)[C@@H](C)CC)[C@@H](C)CC)[C@@H](C)O)[C@@H](C)O)C(C)C)C(C)C [MELITTIN]
MIC [1]: 16 µM (≈ 45.5 µg/mL)
Activity [2]: Active
Activity [3]: Active
